# Reference: paper PMC6155600, “Design, Synthesis and Cellular Characterization of a Dual Inhibitor of 5-Lipoxygenase and Soluble Epoxide Hydrolase” (Molecules : A Journal of Synthetic Chemistry and Natural …, 2016)
# Assays:
# 5-lipoxygenase (5-LO) = target: T1, 5-lipoxygenase (5-LO) (Homo sapiens, UniProt P09917); assay: purified recombinant 5-LO activity assay, arachidonic acid substrate, HPLC product analysis; assay type: biochemical
# T1 construct: gene ALOX5
# T1 sequence (P09917 1-674): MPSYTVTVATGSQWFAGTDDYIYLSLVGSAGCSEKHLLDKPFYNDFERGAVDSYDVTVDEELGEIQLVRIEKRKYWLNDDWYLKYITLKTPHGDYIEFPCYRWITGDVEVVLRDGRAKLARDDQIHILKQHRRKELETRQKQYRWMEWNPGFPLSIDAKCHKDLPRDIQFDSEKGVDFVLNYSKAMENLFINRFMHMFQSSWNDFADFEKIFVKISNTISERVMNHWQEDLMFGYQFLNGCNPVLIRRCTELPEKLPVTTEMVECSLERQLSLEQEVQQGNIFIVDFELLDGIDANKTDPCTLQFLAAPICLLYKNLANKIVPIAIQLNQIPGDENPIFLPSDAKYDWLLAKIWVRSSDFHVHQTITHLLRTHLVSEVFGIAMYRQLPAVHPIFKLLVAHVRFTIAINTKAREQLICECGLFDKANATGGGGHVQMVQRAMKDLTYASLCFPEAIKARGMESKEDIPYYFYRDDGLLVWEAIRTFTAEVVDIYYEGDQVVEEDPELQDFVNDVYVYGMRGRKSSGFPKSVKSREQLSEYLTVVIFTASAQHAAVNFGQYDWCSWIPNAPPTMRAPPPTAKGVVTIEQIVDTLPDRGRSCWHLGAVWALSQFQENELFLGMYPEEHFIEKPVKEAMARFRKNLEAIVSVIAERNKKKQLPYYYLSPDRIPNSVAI
# [1] = target: T2, soluble epoxide hydrolase (sEH) (Homo sapiens, UniProt P34913); assay: fluorescence-based enzyme activity assay with recombinant human sEH (PHOME substrate); assay type: biochemical
# T2 construct: gene EPHX2
# T2 sequence (P34913 1-555): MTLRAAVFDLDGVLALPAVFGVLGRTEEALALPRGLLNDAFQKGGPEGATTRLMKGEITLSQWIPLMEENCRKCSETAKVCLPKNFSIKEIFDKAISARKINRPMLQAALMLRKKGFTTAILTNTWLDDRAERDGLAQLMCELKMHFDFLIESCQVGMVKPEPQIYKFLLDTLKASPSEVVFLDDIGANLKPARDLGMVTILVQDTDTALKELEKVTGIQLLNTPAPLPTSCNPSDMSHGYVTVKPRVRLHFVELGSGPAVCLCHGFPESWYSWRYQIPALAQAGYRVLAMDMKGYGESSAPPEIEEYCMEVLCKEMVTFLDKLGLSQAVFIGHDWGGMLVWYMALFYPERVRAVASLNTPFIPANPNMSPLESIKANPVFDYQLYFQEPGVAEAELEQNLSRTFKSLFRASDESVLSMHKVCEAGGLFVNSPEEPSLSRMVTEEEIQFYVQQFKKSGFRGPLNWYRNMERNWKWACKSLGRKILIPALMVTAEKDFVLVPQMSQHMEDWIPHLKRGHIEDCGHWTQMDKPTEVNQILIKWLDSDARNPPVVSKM
smiles,measurement,setting,value
"COc1ccc(CN(O)C(N)=O)cc1OCCCNC(=O)Nc1ccc(OC(F)(F)F)cc1 [compound 5, 1-(3-{5-(Hydroxyureido)methyl-2-methoxyphenoxy}propyl)-3-[4-(trifluoromethoxy)phenyl]urea]",IC50,5-lipoxygenase (5-LO),1300 nM
same,IC50,[1],29 nM
